Our source for the Activity, IC50 and inhibition values is ChEMBL document CHEMBL5696441 (Nat Chem Biol, 2011).

Assay [1] has as its target Tyrosine-protein kinase FRK (Homo sapiens) (UniProt P42685). Kind of assay: Inhibition of FRK (unknown origin) assessed as remaining activity at 1 uM by Kinome scan method relative to control.
Assay [2] addresses cAMP-dependent protein kinase catalytic subunit PRKX (Homo sapiens) (UniProt P51817). Kind of assay: Inhibition of human PRKX assessed as residual activity at 1 uM using RBER-GSK3(14-27) as substrate in presence of 33P-ATP by ProQinase assay relative to control.
Assay [3] has as its target Serine/threonine-protein kinase PAK 2 (Homo sapiens) (UniProt Q13177). Kind of assay: Inhibition of PAK2 (unknown origin) assessed as remaining activity at 1 uM by Kinome scan method relative to control.
In assay [4] the target is T1, Serine/threonine-protein kinase Nek1 (Homo sapiens) (UniProt Q96PY6).
T1 sequence (whole entry): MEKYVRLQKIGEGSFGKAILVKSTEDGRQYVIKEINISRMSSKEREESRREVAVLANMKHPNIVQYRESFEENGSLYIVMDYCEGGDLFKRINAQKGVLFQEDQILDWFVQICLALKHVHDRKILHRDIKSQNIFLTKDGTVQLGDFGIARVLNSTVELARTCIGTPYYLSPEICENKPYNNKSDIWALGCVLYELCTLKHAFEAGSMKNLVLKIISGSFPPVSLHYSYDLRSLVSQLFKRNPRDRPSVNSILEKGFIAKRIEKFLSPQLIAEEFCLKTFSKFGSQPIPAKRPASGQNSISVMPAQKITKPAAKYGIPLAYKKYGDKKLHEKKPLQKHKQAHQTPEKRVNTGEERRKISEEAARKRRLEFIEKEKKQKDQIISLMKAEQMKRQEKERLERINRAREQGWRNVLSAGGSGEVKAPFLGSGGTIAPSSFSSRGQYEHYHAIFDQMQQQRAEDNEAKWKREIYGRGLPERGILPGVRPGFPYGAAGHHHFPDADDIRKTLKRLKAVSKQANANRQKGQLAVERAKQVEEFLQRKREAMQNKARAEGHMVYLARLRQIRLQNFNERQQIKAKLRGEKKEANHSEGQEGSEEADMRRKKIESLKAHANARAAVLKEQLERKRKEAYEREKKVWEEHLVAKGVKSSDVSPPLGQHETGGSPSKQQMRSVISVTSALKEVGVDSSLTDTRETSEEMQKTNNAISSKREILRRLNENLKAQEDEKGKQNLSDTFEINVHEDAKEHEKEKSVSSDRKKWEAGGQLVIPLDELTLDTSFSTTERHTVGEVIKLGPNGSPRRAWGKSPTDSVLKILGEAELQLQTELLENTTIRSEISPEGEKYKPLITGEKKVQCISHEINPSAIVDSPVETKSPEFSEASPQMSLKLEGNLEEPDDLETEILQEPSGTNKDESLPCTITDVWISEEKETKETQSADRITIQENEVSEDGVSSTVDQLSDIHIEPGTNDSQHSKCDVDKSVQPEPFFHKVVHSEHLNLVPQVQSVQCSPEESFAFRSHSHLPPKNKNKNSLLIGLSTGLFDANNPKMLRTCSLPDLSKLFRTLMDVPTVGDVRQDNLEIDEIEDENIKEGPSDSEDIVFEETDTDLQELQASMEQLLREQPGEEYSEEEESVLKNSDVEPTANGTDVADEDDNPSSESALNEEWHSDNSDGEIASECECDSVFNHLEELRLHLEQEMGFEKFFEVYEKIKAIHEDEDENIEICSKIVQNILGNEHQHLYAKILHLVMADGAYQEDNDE
The assay can be described thus: Inhibition of human NEK1 assessed as residual activity at 1 uM using RBER-CHKtide as substrate in presence of 33P-ATP by ProQinase assay relative to control.

For assay [5], the system named is Tyrosine-protein kinase ABL1 (Homo sapiens), P00519 [Y253F]. Kind of assay: Inhibition of ABL1 Y253F mutant (unknown origin) assessed as remaining activity at 1 uM by Kinome scan method relative to control.
Assay [6] can be described thus: Anti-inflammatory activity against human derived medium respond PBMC cells assessed as inhibition in stimulated IL-6 cytokine release incubated for 2 hrs in the presence of LPS/SEB/aCD28 by Luminex based sandwich immunoassay. Format: functional, cell-based.
The target in assay [7] is 3-phosphoinositide-dependent protein kinase 1 (Homo sapiens) (UniProt O15530). The assay can be described thus: Inhibition of human PDK1 assessed as residual activity at 1 uM using bio-4xCHKT as substrate in presence of 33P-ATP by ProQinase assay relative to control.
A short description of assay [8]: Anti-inflammatory activity against human derived high respond PBMC cells assessed as inhibition in stimulated MCP-1 chemokine release at 10 uM incubated for 2 hrs in the presence of LPS/SEB/aCD28 by Luminex based sandwich immunoassay relative to control. Format: functional.
Assay [9] deals with Proto-oncogene tyrosine-protein kinase ROS (Homo sapiens) (UniProt P08922). Kind of assay: Inhibition of ROS1 (unknown origin) assessed as remaining activity at 1 uM by Kinome scan method relative to control.
In assay [10] the target is Tyrosine-protein kinase Srms (Homo sapiens) (UniProt Q9H3Y6). The assay can be described thus: Inhibition of human SRMS assessed as residual activity at 1 uM using PolyEY as substrate in presence of 33P-ATP by ProQinase assay relative to control.
In assay [11] the target is Platelet-derived growth factor receptor beta (Homo sapiens) (UniProt P09619). Kind of assay: Inhibition of PDGFRbeta (unknown origin) assessed as remaining activity at 1 uM by Kinome scan method relative to control.

Tyrosine-protein kinase FRK (Homo sapiens), sequence (P42685 whole entry): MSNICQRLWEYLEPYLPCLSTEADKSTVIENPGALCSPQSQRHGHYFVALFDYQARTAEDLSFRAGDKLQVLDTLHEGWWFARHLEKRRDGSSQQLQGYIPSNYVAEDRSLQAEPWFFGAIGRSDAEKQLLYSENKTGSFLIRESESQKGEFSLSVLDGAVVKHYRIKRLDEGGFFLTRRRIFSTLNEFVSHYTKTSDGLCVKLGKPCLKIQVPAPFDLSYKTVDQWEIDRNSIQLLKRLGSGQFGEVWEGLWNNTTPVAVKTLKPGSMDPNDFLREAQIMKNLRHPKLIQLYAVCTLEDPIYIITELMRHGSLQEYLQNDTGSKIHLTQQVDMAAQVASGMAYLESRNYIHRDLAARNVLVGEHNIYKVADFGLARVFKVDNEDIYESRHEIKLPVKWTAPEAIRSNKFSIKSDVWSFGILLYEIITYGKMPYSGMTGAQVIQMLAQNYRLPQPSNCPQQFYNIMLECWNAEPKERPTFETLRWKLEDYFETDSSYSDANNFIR
Serine/threonine-protein kinase PAK 2 (Homo sapiens), sequence (Q13177 whole entry): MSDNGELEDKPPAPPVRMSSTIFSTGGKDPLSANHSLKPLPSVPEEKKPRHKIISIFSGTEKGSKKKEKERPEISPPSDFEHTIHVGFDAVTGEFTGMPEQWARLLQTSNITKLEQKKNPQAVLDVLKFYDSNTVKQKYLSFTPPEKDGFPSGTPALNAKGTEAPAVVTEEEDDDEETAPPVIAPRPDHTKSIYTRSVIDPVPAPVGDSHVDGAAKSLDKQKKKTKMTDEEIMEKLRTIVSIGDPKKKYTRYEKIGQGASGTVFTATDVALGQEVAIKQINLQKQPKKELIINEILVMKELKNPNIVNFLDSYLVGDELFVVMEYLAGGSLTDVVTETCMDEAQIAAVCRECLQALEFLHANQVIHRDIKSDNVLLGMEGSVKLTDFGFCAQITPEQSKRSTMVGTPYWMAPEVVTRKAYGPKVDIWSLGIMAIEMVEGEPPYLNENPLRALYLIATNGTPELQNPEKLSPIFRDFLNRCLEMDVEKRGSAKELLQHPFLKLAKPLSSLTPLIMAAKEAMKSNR
3-phosphoinositide-dependent protein kinase 1 (Homo sapiens), sequence (O15530 whole entry, looked up): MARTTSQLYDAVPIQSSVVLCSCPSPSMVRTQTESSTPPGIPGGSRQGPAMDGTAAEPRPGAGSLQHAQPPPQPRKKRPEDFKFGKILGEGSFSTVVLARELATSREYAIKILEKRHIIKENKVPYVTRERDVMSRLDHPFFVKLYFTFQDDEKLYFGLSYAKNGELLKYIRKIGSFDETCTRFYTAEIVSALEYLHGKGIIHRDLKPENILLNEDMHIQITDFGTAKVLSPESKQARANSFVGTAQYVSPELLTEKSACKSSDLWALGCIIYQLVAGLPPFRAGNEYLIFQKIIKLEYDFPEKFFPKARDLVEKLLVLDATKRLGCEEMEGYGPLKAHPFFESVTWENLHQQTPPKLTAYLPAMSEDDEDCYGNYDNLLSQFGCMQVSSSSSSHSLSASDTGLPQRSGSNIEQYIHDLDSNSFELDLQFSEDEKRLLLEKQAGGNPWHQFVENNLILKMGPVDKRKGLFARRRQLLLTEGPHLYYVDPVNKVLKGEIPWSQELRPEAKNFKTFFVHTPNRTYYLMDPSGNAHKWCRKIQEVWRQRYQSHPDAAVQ
cAMP-dependent protein kinase catalytic subunit PRKX (Homo sapiens), sequence (P51817 whole entry): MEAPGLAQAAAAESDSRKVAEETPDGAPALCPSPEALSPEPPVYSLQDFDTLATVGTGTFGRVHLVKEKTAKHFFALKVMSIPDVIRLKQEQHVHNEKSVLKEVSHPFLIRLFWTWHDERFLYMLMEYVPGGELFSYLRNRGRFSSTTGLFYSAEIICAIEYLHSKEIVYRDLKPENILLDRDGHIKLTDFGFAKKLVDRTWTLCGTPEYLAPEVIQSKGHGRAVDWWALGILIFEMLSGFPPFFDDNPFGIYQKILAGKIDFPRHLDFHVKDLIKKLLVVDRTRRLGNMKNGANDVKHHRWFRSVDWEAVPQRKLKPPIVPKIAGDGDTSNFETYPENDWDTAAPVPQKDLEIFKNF
Proto-oncogene tyrosine-protein kinase ROS (Homo sapiens), sequence (P08922 whole entry): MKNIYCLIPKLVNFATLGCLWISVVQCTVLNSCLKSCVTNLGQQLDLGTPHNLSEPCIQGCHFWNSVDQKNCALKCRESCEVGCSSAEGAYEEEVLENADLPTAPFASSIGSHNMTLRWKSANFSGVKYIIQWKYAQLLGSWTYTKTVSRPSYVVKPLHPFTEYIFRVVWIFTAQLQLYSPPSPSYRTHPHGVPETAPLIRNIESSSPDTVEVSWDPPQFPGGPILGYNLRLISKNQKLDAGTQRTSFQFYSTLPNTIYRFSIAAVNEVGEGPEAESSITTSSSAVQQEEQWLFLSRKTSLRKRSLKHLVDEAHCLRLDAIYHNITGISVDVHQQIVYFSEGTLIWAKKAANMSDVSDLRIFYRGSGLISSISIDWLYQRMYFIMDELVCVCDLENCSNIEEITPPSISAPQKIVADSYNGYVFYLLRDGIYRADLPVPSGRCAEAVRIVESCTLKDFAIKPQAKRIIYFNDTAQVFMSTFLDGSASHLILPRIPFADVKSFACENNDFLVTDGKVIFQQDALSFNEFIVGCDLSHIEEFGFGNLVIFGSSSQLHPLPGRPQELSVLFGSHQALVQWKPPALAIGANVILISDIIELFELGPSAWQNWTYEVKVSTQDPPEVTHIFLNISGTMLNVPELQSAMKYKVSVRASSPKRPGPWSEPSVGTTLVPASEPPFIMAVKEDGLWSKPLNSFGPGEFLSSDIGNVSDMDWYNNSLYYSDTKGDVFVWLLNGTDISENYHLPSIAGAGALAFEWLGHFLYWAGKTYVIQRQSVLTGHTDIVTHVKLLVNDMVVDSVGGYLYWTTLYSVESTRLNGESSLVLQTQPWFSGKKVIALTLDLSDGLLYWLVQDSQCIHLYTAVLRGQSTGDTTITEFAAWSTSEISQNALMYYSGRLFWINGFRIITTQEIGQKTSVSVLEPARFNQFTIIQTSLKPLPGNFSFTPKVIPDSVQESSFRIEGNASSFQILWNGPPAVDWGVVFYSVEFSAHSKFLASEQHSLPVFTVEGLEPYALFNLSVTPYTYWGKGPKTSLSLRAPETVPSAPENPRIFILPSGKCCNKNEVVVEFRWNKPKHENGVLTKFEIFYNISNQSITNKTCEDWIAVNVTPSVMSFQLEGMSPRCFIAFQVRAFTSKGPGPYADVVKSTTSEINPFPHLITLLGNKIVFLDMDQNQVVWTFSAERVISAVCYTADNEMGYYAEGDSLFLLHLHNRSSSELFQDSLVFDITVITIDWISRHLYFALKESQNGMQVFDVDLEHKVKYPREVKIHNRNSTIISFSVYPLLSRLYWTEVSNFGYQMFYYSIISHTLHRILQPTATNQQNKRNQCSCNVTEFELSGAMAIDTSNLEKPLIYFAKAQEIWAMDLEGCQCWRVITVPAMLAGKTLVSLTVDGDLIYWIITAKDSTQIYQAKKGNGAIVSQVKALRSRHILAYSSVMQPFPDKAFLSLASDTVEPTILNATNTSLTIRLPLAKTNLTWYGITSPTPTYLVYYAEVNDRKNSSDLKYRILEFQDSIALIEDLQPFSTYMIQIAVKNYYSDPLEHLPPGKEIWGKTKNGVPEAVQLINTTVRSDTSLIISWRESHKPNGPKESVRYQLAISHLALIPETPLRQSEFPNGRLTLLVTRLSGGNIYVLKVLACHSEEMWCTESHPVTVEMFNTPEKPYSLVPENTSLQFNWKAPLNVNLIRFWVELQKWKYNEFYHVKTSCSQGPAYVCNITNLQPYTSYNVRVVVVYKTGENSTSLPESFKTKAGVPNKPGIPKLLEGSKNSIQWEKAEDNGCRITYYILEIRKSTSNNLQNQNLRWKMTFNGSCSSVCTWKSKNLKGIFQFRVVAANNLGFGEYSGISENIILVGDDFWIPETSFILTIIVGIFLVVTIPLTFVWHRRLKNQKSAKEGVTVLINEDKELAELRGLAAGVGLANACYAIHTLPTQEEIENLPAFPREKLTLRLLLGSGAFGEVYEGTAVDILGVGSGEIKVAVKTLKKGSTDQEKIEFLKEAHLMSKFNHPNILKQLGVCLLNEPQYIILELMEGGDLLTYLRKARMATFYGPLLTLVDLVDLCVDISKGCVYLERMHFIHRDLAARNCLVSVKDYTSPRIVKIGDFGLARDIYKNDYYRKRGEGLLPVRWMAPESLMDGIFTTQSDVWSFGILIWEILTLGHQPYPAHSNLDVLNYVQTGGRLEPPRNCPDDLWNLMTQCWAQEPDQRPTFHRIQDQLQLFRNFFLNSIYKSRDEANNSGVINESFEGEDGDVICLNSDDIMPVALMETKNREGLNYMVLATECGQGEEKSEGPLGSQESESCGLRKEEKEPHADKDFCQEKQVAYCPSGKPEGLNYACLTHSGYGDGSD
Tyrosine-protein kinase Srms (Homo sapiens), sequence (Q9H3Y6 whole entry): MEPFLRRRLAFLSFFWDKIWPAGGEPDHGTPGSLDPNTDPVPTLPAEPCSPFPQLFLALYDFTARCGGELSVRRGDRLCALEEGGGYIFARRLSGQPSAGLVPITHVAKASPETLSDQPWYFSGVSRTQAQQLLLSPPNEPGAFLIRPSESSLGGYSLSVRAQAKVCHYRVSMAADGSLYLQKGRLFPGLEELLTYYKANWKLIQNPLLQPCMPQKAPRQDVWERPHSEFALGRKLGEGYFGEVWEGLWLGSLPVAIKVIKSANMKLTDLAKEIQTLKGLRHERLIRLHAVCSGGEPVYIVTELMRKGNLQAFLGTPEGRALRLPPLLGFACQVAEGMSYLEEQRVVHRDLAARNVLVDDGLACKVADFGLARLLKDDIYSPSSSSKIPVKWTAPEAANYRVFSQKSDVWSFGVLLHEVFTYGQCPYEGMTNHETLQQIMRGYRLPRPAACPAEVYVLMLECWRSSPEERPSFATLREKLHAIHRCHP

Turning to `O=C1c2ccc(Nc3ccc(F)cc3F)cc2CCc2ccc(OC[C@H](O)CO)cc21` [Skepinone-L], the Activity in [1] was 100%; in [2] it was 79%; in assay [3], 100%; in assay [4], 83%; in assay [5] it was 90%; in assay [7], 97%. Also, the Activity in [9] came out at 99%; in assay [10], 95%; in [11], 87%. The 50% inhibitory concentration (IC50) – broadly, the concentration that inhibits the measured activity by half – in assay [6] came to 780 nM. In addition, the inhibition (usually the drop in the measured response relative to a control, in per cent) at 10 µM in [8] is 25%.
